{"source": "paper PMC9866866", "about": "“Antiviral Activity of Benzoheterocyclic Compounds from Soil-Derived Streptomyces jiujiangensis NBERC-24992” (Molecules, 2023)", "key": {"PRV [1]": {"tested_on": "PRV", "test": "microbe, parasite or virus in culture", "type": "cell-based, Pseudorabies virus", "settings": "for EC50: Suid alphaherpesvirus 1, Vero, 48 h, read-out: Antiviral Activity EC50"}, "Vero cells": {"tested_on": "Vero cells", "settings": "for Cytotoxicity IC50 (CC50): African green monkey"}, "several viruses": {"tested_on": "several viruses", "settings": "cited from earlier work"}, "in vitro": {"test": "in vitro", "settings": "African green monkey"}, "PRV [2]": {"tested_on": "PRV", "type": "cell-based, Pseudorabies virus"}, "PRV [3]": {"tested_on": "PRV", "type": "cell-based, Pseudorabies virus", "remark": "listed apart in the source"}, "[4]": {"tested_on": "various RNA and DNA viruses", "settings": "cited from earlier work"}}}
{"smiles": "Nc1nc2c(ncn2COCCO)c(=O)[nH]1", "note": "[Acyclovir, reference compound]", "values": [{"measurement": "EC50", "setting": "PRV [1]", "value": "2.96 ± 1.48", "unit": "µg/mL"}, {"measurement": "Cytotoxicity IC50 (CC50)", "setting": "Vero cells", "value": ">20", "unit": "µg/mL"}]}
{"smiles": "COC[C@@]1(CCC(C)=C(C)C)Nc2ccc(C(N)=O)cc2C[C@H]1Cl", "note": "[Benzastatin C]", "values": [{"measurement": "antiviral activity against several viruses", "setting": "several viruses", "value": "specific activities against several viruses"}]}
{"smiles": "COCC12CCC(C)(O)C(C)(C)C1Cc1cc(C(=O)O)ccc1N2", "note": "(stereo not drawn) [Compound 1, Virantmycin D]", "values": [{"measurement": "EC50", "setting": "PRV [1]", "value": "> 20", "unit": "µg/mL"}, {"measurement": "Cytotoxicity IC50 (CC50)", "setting": "Vero cells", "value": ">20", "unit": "µg/mL"}]}
{"smiles": "COCC(O)(CCC1(C)OC1(C)C)C1Cc2cc(C(=O)O)ccc2N1", "note": "(stereo not drawn) [Compound 2, Virantmycin E]", "values": [{"measurement": "EC50", "setting": "PRV [1]", "value": "> 20", "unit": "µg/mL"}, {"measurement": "Cytotoxicity IC50 (CC50)", "setting": "Vero cells", "value": ">20", "unit": "µg/mL"}]}
{"smiles": "COC[C@@]1(CCC(CO)=C(C)C)Nc2ccc(C(=O)O)cc2C[C@H]1Cl", "note": "[Compound 3, Virantmycin F]", "values": [{"measurement": "EC50", "setting": "PRV [1]", "value": "1.74 ± 0.25", "unit": "µg/mL"}, {"measurement": "Cytotoxicity IC50 (CC50)", "setting": "Vero cells", "value": ">20", "unit": "µg/mL"}, {"measurement": "viability", "setting": "in vitro", "value": 80, "unit": "%"}]}
{"smiles": "COCC1(CCC(C)=C(C)C)Nc2ccc(C(=O)O)cc2CC1Cl", "note": "(stereo not drawn) [Compound 4, virantmycin]", "values": [{"measurement": "cells alive (protection of Vero cells against PRV)", "setting": "PRV [1]", "value": "more than 50%"}, {"measurement": "EC50", "setting": "PRV [1]", "value": "< 0.31", "unit": "µg/mL"}, {"measurement": "virus infection in PRV-infected cells (indirect immunofluorescence)", "setting": "PRV [2]", "value": "significantly reduced"}, {"measurement": "PRV proliferation (qPCR, PRV gE)", "setting": "PRV [3]", "value": "inhibits PRV proliferation in a dose–dependent manner"}, {"measurement": "toxic effect on the tested cells", "setting": "Vero cells", "value": "does not show any toxic effect"}, {"measurement": "Cytotoxicity IC50 (CC50)", "setting": "Vero cells", "value": ">20", "unit": "µg/mL"}, {"measurement": "antiviral activity against various RNA and DNA viruses", "setting": "[4]", "value": "significant antiviral activity"}]}
{"smiles": "COC[C@@]1(CCC(C)=C(C)C)Nc2ccc(C(=O)O)cc2C[C@H]1O", "note": "[Compound 5, A-503451 D]", "values": [{"measurement": "EC50", "setting": "PRV [1]", "value": "> 20", "unit": "µg/mL"}, {"measurement": "Cytotoxicity IC50 (CC50)", "setting": "Vero cells", "value": ">20", "unit": "µg/mL"}]}
{"smiles": "COC[C@@]1(CCC(C)=C(C)C)Nc2ccc(C(=O)O)cc2C[C@H]1OC(C)=O", "note": "[Compound 6, A-503451 D acetylate]", "values": [{"measurement": "EC50", "setting": "PRV [1]", "value": "> 20", "unit": "µg/mL"}, {"measurement": "Cytotoxicity IC50 (CC50)", "setting": "Vero cells", "value": ">20", "unit": "µg/mL"}]}
{"smiles": "COC[C@@](Cl)(CCC(C)=C(C)C)[C@@H]1Cc2cc(C(=O)O)ccc2N1", "note": "[Compound 7, A-503451 A]", "values": [{"measurement": "EC50", "setting": "PRV [1]", "value": "6.46 ± 1.38", "unit": "µg/mL"}]}
{"smiles": "COCC(O)(CCC(C)=C(C)C)C1Cc2cc(C(=O)O)ccc2N1", "note": "(stereo not drawn) [Compound 8, A-503451 B]", "values": [{"measurement": "EC50", "setting": "PRV [1]", "value": "> 20", "unit": "µg/mL"}, {"measurement": "Cytotoxicity IC50 (CC50)", "setting": "Vero cells", "value": ">20", "unit": "µg/mL"}]}
{"smiles": "NC(=O)c1ncn([C@@H]2O[C@H](CO)[C@@H](O)[C@H]2O)n1", "note": "[Ribavirin, reference compound]", "values": [{"measurement": "EC50", "setting": "PRV [1]", "value": "4.44 ± 1.53", "unit": "µg/mL"}, {"measurement": "Cytotoxicity IC50 (CC50)", "setting": "Vero cells", "value": ">20", "unit": "µg/mL"}]}
{"smiles": "COC[C@@]1(CCC(C)=C(C)C)Nc2ccc(C(N)=O)cc2C[C@H]1O", "note": "[benzastatin D]", "values": [{"measurement": "antiviral activity against several viruses", "setting": "several viruses", "value": "inactive"}]}
